Experiment [1] can be described thus: Inhibition of recombinant full length HIV-1 nucleocapsid assessed as inhibition of nucleocapsid-mediated melting of cTAR DNA measured 3 times with 1 min interval by FRET based assay. Further details: species or system Human immunodeficiency virus 1.
Experiment [2] has as its system Human immunodeficiency virus 1. Kind of experiment: Inhibition of recombinant full length HIV-1 nucleocapsid assessed as inhibition of TAR RNA/cTAR DNA annealing upto 100 uM preincubated with oligonucleotides for 15 mins followed by nucleocapsid addition measured after 15 mins by NAME assay.
Experiment [3] can be described thus: Inhibition of recombinant full length HIV-1 nucleocapsid assessed as inhibition of nucleocapsid-mediated melting of TAR RNA measured 3 times with 1 min interval by FRET based assay. Further details: species or system Human immunodeficiency virus 1.
Experiment [4] relates to Human immunodeficiency virus 1. The experiment can be described thus: Binding affinity to HIV-1 29-mer TAR RNA assessed as 3:1 compound-RNA complex formation at 10 uM by ESI-MS analysis.
Experiment [5] concerns Human immunodeficiency virus 1. Kind of experiment: Inhibition of recombinant full length HIV-1 nucleocapsid assessed as inhibition of TAR RNA /cTAR DNA annealing at 50 to 100 uM preincubated with oligonucleotides for 15 mins followed by nucleocapsid addition measured after 15 mins by NAME assay.
Experiment [6] deals with Human immunodeficiency virus 1. The experiment can be described thus: Binding affinity to HIV-1 cTAR DNA-29-mer TAR RNA duplex assessed as increase in melting temperature at 10 uM by fluorescence quenching assay.
The subject of experiment [7] is Human immunodeficiency virus 1. Kind of experiment: Binding affinity to HIV-1 cTAR DNA assessed as increase in melting temperature at 10 uM by fluorescence quenching assay.
Experiment [8] has as its system Human immunodeficiency virus 1. The experiment can be described thus: Binding affinity to HIV-1 cTAR DNA assessed as 4:1 […] complex formation at 10 uM by ESI-MS analysis.
The nature of experiment [9]: Inhibition of recombinant full length HIV-1 nucleocapsid assessed as inhibition of TAR RNA/cTAR DNA annealing preincubated with oligonucleotides for 15 mins followed by nucleocapsid addition measured after 15 mins by NAME assay. Further details: species or system Human immunodeficiency virus 1.
For experiment [10], the system named is Human immunodeficiency virus 1. Kind of experiment: Binding affinity to HIV-1 29-mer TAR RNA assessed as increase in melting temperature at 10 uM by fluorescence quenching assay.
Experiment [11] has as its system Human immunodeficiency virus 1. The experiment can be described thus: Selectivity index, ratio of melting temperature for HIV-1 29-mer TAR RNA to HIV-1 cTAR DNA.
Experiment [12] deals with Human immunodeficiency virus 1. The experiment can be described thus: Binding affinity to HIV-1 29-mer TAR RNA assessed as 1:1 compound-RNA complex formation at 10 uM by ESI-MS analysis.
Experiment [13] has as its system Human immunodeficiency virus 1. The experiment can be described thus: Binding affinity to HIV-1 cTAR DNA assessed as 2:1 […] complex formation at 10 uM by ESI-MS analysis.
Experiment [14] has as its system Human immunodeficiency virus 1. Kind of experiment: Inhibition of recombinant full length HIV-1 nucleocapsid assessed as inhibition of TAR RNA /cTAR DNA annealing at 20 to 50 uM preincubated with oligonucleotides for 15 mins followed by nucleocapsid addition measured after 15 mins by NAME assay.
The subject of experiment [15] is Human immunodeficiency virus 1. The experiment can be described thus: Binding affinity to HIV-1 cTAR DNA at 10 uM by ESI-MS analysis.
Experiment [16] concerns Human immunodeficiency virus 1. Kind of experiment: Binding affinity to HIV-1 29-mer TAR RNA at 10 uM by ESI-MS analysis.

This is an account of results in ChEMBL document CHEMBL3779894, “Synthesis and in Vitro Screening of New Series of 2,6-Dipeptidyl-anthraquinones: Influence of Side Chain Length on HIV-1 Nucleocapsid Inhibitors” (J Med Chem, 2016).

Each structure is given as a SMILES string. The source made the active and inactive calls. No cut-off for these calls is given here. A value given as a limit tells only on which side of the number the result lay.

Broadly, the IC50 is the point on the concentration scale where inhibition reaches its midpoint. For `C[C@H](NC(=O)[C@H]1CC[C@H](CN)CC1)C(=O)Nc1ccc2c(c1)C(=O)c1ccc(NC(=O)[C@H](C)NC(=O)[C@H]3CC[C@H](CN)CC3)cc1C2=O`, the IC50 was determined as 14.6 µM in [1] and 14.8 µM in experiment [3]. The inhibition result in [2] is “inactive”.

Regarding `C[C@H](NC(=O)C(N)CCCN)C(=O)Nc1ccc2c(c1)C(=O)c1ccc(NC(=O)[C@H](C)NC(=O)C(N)CCCN)cc1C2=O` (some centres undefined), the outcome in experiment [4], in experiment [6], in experiment [7], in experiment [8] and in experiment [10] was Active. Moreover, the IC50 in experiment [1] was 1.93 µM; in experiment [9] it was 49.1 µM; in experiment [3] it was 4.91 µM. In addition, the inhibition result in experiment [5] was “Active”. Also, the Ratio in experiment [11] was determined as 0.58.

Take `NCCC(=O)NCC(=O)Nc1ccc2c(c1)C(=O)c1ccc(NC(=O)CNC(=O)CCN)cc1C2=O`: the IC50 was 4.06 µM in experiment [1], more than 100 µM in experiment [9] and 6.42 µM in experiment [3]. The inhibition result in [5] is “Active”. Besides, the result in experiment [6], in experiment [7] and in experiment [10] was Active.

With `C[C@H](NC(=O)C(N)CN)C(=O)Nc1ccc2c(c1)C(=O)c1ccc(NC(=O)[C@H](C)NC(=O)C(N)CN)cc1C2=O` (some centres undefined), the IC50 in experiment [1] amounted to 44.1 µM; in [3], 67.1 µM. The outcome in experiment [7] and in experiment [10] was inactive. For the same molecule, in experiment [2], the inhibition result is “inactive”.

Turning to `Nc1ccc(CC(N)C(=O)NCC(=O)Nc2ccc3c(c2)C(=O)c2ccc(NC(=O)CNC(=O)C(N)Cc4ccc(N)cc4)cc2C3=O)cc1` (centres undefined), the IC50 in experiment [1] was 7.78 µM; in experiment [9] it was more than 100 µM; in [3] it was 7.72 µM. Besides, the outcome in [6], in experiment [7] and in experiment [10] was inactive. Further, in experiment [2], the inhibition entry was “inactive”.

For `C[C@H](NC(=O)C1CCNCC1)C(=O)Nc1ccc2c(c1)C(=O)c1ccc(NC(=O)[C@H](C)NC(=O)C3CCNCC3)cc1C2=O`, the IC50 in experiment [1] stood at 12 µM; in [3] it was 20.8 µM. Also, the inhibition entry in experiment [2] was “inactive”. Further, the result in [12] and in experiment [13] was Active.

As for `NCCCC(N)C(=O)NCC(=O)Nc1ccc2c(c1)C(=O)c1ccc(NC(=O)CNC(=O)C(N)CCCN)cc1C2=O` (centres undefined), the result in [4], in experiment [6], in [7], in [10] and in experiment [15] was Active. Besides, the IC50 in [1] is 1.81 µM; in experiment [9], 54.1 µM; in experiment [3], 2.62 µM. The Ratio in experiment [11] turned out to be 0.72. In experiment [14], the inhibition entry is “Active”.

On to `C[C@H](NC(=O)C(N)CCN)C(=O)Nc1ccc2c(c1)C(=O)c1ccc(NC(=O)[C@H](C)NC(=O)C(N)CCN)cc1C2=O` (some centres undefined), for which the IC50 is 4.28 µM in experiment [1], more than 100 µM in experiment [9] and 6.9 µM in experiment [3]. For the same molecule, the result in [6], in [7] and in experiment [10] was Active. For the same molecule, in experiment [2], the inhibition entry was “inactive”. In addition, in experiment [11], the Ratio was 0.5.

With `C[C@H](NC(=O)C(N)Cc1ccc(N)cc1)C(=O)Nc1ccc2c(c1)C(=O)c1ccc(NC(=O)[C@H](C)NC(=O)C(N)Cc3ccc(N)cc3)cc1C2=O` (some centres undefined), the IC50 in experiment [1] was found to be 7.53 µM; in experiment [3] it was 7.29 µM. The inhibition entry in experiment [2] was “inactive”.

On to `O=C(CNC(=O)C1CCNCC1)Nc1ccc2c(c1)C(=O)c1ccc(NC(=O)CNC(=O)C3CCNCC3)cc1C2=O`, for which the half-inhibitory concentration (IC50) in experiment [1] and in experiment [3] was 10.7 µM throughout. Further, the outcome in experiment [6], in [7], in experiment [12], in experiment [13] and in [10] was Active. In addition, the inhibition entry in [2] was “inactive”.

On to `C[C@H](NC(=O)C1(N)CCNCC1)C(=O)Nc1ccc2c(c1)C(=O)c1ccc(NC(=O)[C@H](C)NC(=O)C3(N)CCNCC3)cc1C2=O`, for which the figures for the IC50 in experiment [1] and in experiment [3] were 14.6 µM and 40.2 µM, respectively. In addition, the inhibition entry in [2] is “inactive”.

On to `NC1(C(=O)NCC(=O)Nc2ccc3c(c2)C(=O)c2ccc(NC(=O)CNC(=O)C4(N)CCNCC4)cc2C3=O)CCNCC1`, for which the results for the IC50 in experiment [1], in experiment [9] and in experiment [3] were 5.13 µM, more than 100 µM and 7.79 µM, respectively. Besides, in [5], the inhibition result was “Active”. Moreover, the result in experiment [6], in experiment [7] and in experiment [10] was Active.

For the molecule `NCCC(N)C(=O)NCC(=O)Nc1ccc2c(c1)C(=O)c1ccc(NC(=O)CNC(=O)C(N)CCN)cc1C2=O` (centres undefined), the half-inhibitory concentration (IC50) in [1] worked out at 4.61 µM; in experiment [9], 81.4 µM; in experiment [3] it was 3.87 µM. Also, the inhibition entry in experiment [5] was “Active”. In addition, the result in [6], in [7] and in experiment [10] was Active. In experiment [11], the Ratio was found to be 0.97.

In the case of `NCCCCC(N)C(=O)NCC(=O)Nc1ccc2c(c1)C(=O)c1ccc(NC(=O)CNC(=O)C(N)CCCCN)cc1C2=O` (centres undefined), the 50% inhibitory concentration (IC50) in experiment [1] worked out at 1.11 µM; in experiment [9], 23.5 µM; in experiment [3], 2.12 µM. The outcome in experiment [6], in experiment [7], in experiment [16], in experiment [10] and in experiment [15] was Active. For the same molecule, the Ratio in [11] turned out to be 0.72. Also, the inhibition result in experiment [14] is “Active”.

For the molecule `NCC(N)C(=O)NCC(=O)Nc1ccc2c(c1)C(=O)c1ccc(NC(=O)CNC(=O)C(N)CN)cc1C2=O` (centres undefined), the half-maximal inhibitory concentration (IC50) in experiment [1] came out at 3.81 µM; in experiment [9], 103 µM; in experiment [3], 4.22 µM. Moreover, the inhibition result in experiment [5] was “Active”. Also, the outcome in [6], in experiment [7] and in [10] was Active.

Turning to `C[C@H](NC(=O)C(N)CCCCN)C(=O)Nc1ccc2c(c1)C(=O)c1ccc(NC(=O)[C@H](C)NC(=O)C(N)CCCCN)cc1C2=O` (some centres undefined), the result in experiment [4], in experiment [6], in [7], in experiment [8] and in [10] was Active. The IC50 stood at 2.68 µM in experiment [1], 80.4 µM in [9] and 6.61 µM in experiment [3]. The inhibition result in experiment [5] is “Active”. Moreover, the Ratio in experiment [11] was found to be 0.56.

With `C[C@H](NC(=O)CCN)C(=O)Nc1ccc2c(c1)C(=O)c1ccc(NC(=O)[C@H](C)NC(=O)CCN)cc1C2=O`, the 50% inhibitory concentration (IC50) came out at 12.7 µM in experiment [1] and 39.5 µM in experiment [3]. For the same molecule, the inhibition entry in [2] is “inactive”.

Regarding `NC[C@H]1CC[C@H](C(=O)NCC(=O)Nc2ccc3c(c2)C(=O)c2ccc(NC(=O)CNC(=O)[C@H]4CC[C@H](CN)CC4)cc2C3=O)CC1`, the values for the IC50 in experiment [1] and in [3] were 9.75 µM and 11.3 µM, respectively. For the same molecule, the result in experiment [6], in experiment [7] and in [10] was inactive.
